One assay addresses T1, hDAT (Homo sapiens, UniProt Q01959).
T1 construct: expressed in transfected cells; host or cells: HEK 293 cells (membrane preparation)
Description: Radioligand binding, hDAT ([3H]WIN35,428). How it is done: (§1) Binding affinities at human monoamine receptors and transporters were assessed as previously reported. A detailed description of the methodology is provided in the Supplementary information.
(§2) The IC50 values from the radioligand binding assays were determined by nonlinear regression, using three independent concentration-response curves fitted to a one-site model. The Cheng-Prusoff equation was used to calculate Kᵢ values for the competing ligands. EC50 values were determined by applying nonlinear regression to concentration-response curves. Bias factors (β) were calculated based on the relative intrinsic activity approach. More detailed information can be found in the Supplementary information. Mean values for total number of HTR, change in body temperature from pre to post session (Δ°C), and total distance traveled (cm) for each drug dose were compared (p < 0.05) via Welch’s ANOVA with Dunnett’s T3 post test, comparing all doses to respective vehicle controls (0 mg/kg). Welch’s ANOVA with Dunnett’s T3 post test was also used to compare drug concentrations, but the data were compared to DOM in this case. Dose–response relationships for HTR and locomotor activities were plotted using bell-shaped curve fits, while temperature change data were plotted using four-parameter non-linear regression curve fits. The ascending phase of the HTR curve for each drug was used to determine ED50 potency values from four parameter non-linear regression fits. For combined DOM and DOAM administration, the plasma, brain tissue, and brain dialysate drug concentrations were compared using paired t-tests (p < 0.05).
(§3) 3.1 Assessment of receptor and transporter binding affinities
(§4) Membrane preparations were prepared from cells transfected with the respective target. The membrane preparations were then incubated with selective radioligands at concentrations equal to the corresponding Kd and displacement of the ligand by the drugs was measured. The difference between total binding and nonspecific binding (determined in the presence of selective competitors) was defined as specific binding of the radioligand to the target receptor. The following transfected cell lines were used for the binding assays: HEK 293 cells (h5-HT1A, h5-HT2A, h5-HT2B, h5-HT2C, and hD2 receptors, hDAT, hNET, and hSERT), Chinese hamster ovary cells (hα 1A receptor), and Chinese hamster lung cells (hα 2A receptor).
(§5) 3.1.1 Membrane preparations for receptor and transporter binding
(§6) For producing membrane preparations, transfected cells were harvested with trypsin/EDTA, washed with ice-cold phosphate buffered saline, and then pelleted by centrifugation (210 × g for 5 min at 4 °C). The pellets were frozen and stored at -80 °C until use. Frozen pellets were resuspended in 20 m L (receptor binding) or 400 m L (transporter binding) buffer (20 mM HEPES -NaOH, 10 mM EDTA, pH 7.4), and homogenized at 1,100 × g for 20 s (receptor binding) or 560 × g for 15 s (transporter binding); the homogenates were then centrifuged at 48,000 × g for 30 min at 4 °C. For receptor binding assays, the supernatants were discarded and the pellets were resuspended in 20 mL buffer (20 mM HEPES-NaOH, 0.1 mM EDTA, pH 7.4) and homogenized at 1 ,100 × g for 20 s. Centrifugation and discarding of the supernatant were repeated once, and the final pellet was then resuspended in buffer and homogenized.
(§7) 3.1.2 Serotonin 5-HT1A and 5-HT2A receptor binding
Competitive binding at the h5-HT1A and h5-HT2A receptor was determined using 0.90 nM [ 3H]8-hydroxy-2-(di-n-propylamine)tetralin ([ 3H]8-OH-DPAT; h5-HT1A receptor agonist) and 0.40 nM [3H]ketanserin (h5-HT2 receptor antagonist) as radioligands. […]
binding of the radioligands was defined as difference between total binding (binding buffer alone) and nonspecific binding determined in the presence of 10 μM pindolol (h5-HT1A receptor antagonist) or 10 μM spiperone (h 5-HT2A receptor antagonist).

A further assay deals with T2, hα1A (Homo sapiens, UniProt P35348).
T2 construct: expressed in transfected cells; host or cells: Chinese hamster ovary cells (membrane preparation)
T2 sequence (P35348 1-466): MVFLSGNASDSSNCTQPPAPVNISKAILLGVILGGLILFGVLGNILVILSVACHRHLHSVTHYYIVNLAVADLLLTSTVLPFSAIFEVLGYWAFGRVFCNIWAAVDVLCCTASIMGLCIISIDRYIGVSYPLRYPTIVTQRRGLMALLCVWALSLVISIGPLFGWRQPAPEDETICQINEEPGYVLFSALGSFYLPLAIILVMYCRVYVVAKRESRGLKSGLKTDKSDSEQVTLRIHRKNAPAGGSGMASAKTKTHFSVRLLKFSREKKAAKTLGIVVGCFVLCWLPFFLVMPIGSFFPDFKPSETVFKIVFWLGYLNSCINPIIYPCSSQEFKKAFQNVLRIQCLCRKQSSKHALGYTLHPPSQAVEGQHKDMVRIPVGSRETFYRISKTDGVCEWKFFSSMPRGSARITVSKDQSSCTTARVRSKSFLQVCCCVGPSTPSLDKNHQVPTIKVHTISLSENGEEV
Description: Radioligand binding, hα1A receptor ([3H]prazosin). The protocol:
as §1
as §2, with “Data analysis was performed with Prism software (version 10.1.2, GraphPad Software, Boston, MA, USA). The IC50” for “The IC50”, “< 0.05). Ratios were compared using Holm-Sidak’s post hoc test following a repeated-measures one-way ANOVA (F (1.709, 6.835) = 70.80; p < 0.0001).” for “< 0.05).”
as §3, §4, §5, §6, §7
Competitive binding at the h5-HT1A and h5-HT2A receptor was determined using 0.90 nM [ 3H]8-hydroxy-2-(di-n-propylamine)tetralin ([ 3H]8-OH-DPAT; h5-HT1A receptor agonist) and 0.40 nM [3H]ketanserin (h5-HT2 receptor antagonist) as radioligands. The density and affinity of [ 3H]8-OH-DPAT […]

The mark [1] stands for this setting: hDAT Ki, mean (95% CI), HEK 293 membranes.

T1 sequence (Q01959 whole entry): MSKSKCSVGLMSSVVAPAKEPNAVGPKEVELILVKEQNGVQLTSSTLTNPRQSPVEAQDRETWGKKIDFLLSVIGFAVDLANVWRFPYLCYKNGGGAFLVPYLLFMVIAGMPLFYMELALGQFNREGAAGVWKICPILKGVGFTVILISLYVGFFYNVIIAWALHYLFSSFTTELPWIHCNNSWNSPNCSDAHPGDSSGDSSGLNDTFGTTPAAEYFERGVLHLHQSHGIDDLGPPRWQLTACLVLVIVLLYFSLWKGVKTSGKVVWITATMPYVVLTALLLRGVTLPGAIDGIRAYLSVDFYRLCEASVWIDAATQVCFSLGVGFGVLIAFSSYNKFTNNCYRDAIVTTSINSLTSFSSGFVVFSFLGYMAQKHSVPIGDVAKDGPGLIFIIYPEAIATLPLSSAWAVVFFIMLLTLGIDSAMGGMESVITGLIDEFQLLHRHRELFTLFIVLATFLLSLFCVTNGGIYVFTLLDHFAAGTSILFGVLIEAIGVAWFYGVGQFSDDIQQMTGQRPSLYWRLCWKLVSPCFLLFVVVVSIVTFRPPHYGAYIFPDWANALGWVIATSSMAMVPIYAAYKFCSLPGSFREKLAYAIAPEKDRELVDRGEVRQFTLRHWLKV

Usually Ki stands for the dissociation constant of the complex between target and ligand, obtained from inhibition or displacement. For `COc1ccc(OC)c(CC(C)N)c1.Cl` (stereo not shown) [2,5-DMA, 2,5-Dimethoxyamphetamine hydrochloride], the Ki was more than 8 µM on hDAT (setting [1]) and 5.36 µM at hα1A.

As for `CCCCCc1cc(OC)c(CC(C)N)cc1OC` (stereo not shown) [DOAM, 4-amyl-2,5-dimethoxyamphetamine], the Ki came out at 3.6 µM at hDAT (Ki DAT, text value (range DAT and SERT 3.6–4.6)); 3.64 µM at hDAT (setting [1]); 2.52 µM at hα1A.

Regarding `CCCCc1cc(OC)c(CC(C)N)cc1OC` (stereo not shown) [DOBU, 4-butyl-2,5-dimethoxyamphetamine], the Ki on hDAT (setting [1]) is more than 8 µM; on hα1A, 2.1 µM.

As for `CCc1cc(OC)c(CC(C)N)cc1OC` (stereo not shown) [DOET, 4-ethyl-2,5-dimethoxyamphetamine], the values for the Ki at hDAT (setting [1]) and on hα1A were more than 8 µM and 4.01 µM, respectively.

As to `COc1cc(CC(C)N)c(OC)cc1C` (stereo not shown) [DOM, 4-methyl-2,5-dimethoxyamphetamine], the Ki at hDAT (setting [1]) is more than 8 µM; on hα1A it was 7.39 µM.

For `CCCc1cc(OC)c(CC(C)N)cc1OC.Cl` (stereo not shown) [DOPR, 4-propyl-2,5-dimethoxyamphetamine hydrochloride], the results for the inhibition constant Ki at hDAT (setting [1]) and at hα1A were more than 8 µM and 6.99 µM, respectively.

The values are drawn from article PMC12916490 (Molecular Psychiatry, 2025).
